Laboratory results as given in BigSolDB 2.1.

COc1cc(/C=C/C(=O)CC(=O)/C=C/c2ccc(O)c(OC)c2)ccc1O
solubility (mole fraction)
Settings	278.15 K	283.15 K	288.15 K	293.15 K	298.15 K	303.15 K	308.15 K	313.15 K	318.15 K	323.15 K
in DMSO	0.137	0.16	0.184	0.211	0.24	0.271	0.303	0.338	0.375	0.413
in THF	0.113	0.134	0.157	0.183	0.211	0.239	0.27	0.302	0.336	0.371
in acetone	0.00834	0.00986	0.0118	0.0138	0.0162	0.0189	0.022	0.0257	0.0298	0.0345
in acetonitrile	0.00071	0.00083	0.00097	0.00113	0.00129	0.00149	0.00169	0.00194	0.00221	0.00253
in ethanol	0.00041	0.00048	0.00056	0.00065	0.00075	0.00086	0.00098	0.00111	0.00127	0.00145
in ethyl acetate	0.00176	0.00199	0.00227	0.00253	0.00285	0.00319	0.00357	0.00399	0.00447	0.00501
in isopropanol	0.00156	0.00177	0.002	0.00226	0.00254	0.00285	0.00319	0.00356	0.00398	0.00444
in m-xylene	0.00015	0.00018	0.00022	0.00026	0.00031	0.00036	0.00042	0.00049	0.00057	0.00066
in methanol	0.00029	0.00033	0.00038	0.00044	0.0005	0.00057	0.00066	0.00075	0.00087	0.001
in n-butanol	0.00049	0.00057	0.00066	0.00075	0.00086	0.00099	0.00114	0.00131	0.00151	0.00175
in n-heptane	5e-05	9e-05	0.00013	0.00017	0.00022	0.00027	0.00032	0.00038	0.00044	0.00052
in n-hexane	7e-05	0.00011	0.00015	0.00019	0.00024	0.00029	0.00035	0.00041	0.00048	0.00057
